How the values were obtained:
Assay in all cases: KINOMEscan (ScanMAX) kinase profiling
Format in all cases: binding
panel of 468 kinases [1] = molecular target: T1, panel of 468 kinases (Homo sapiens, UniProt P10721, D816V); conditions: KIT(D816V); 1 μM; read-out: % control
T1 construct: purchased KINOMEscan (ScanMAX) service

panel of 468 kinases [2] = molecular target: T2, panel of 468 kinases (Homo sapiens, UniProt P29322); conditions: EPHA8; 1 μM; read-out: % control
T2 construct: purchased KINOMEscan (ScanMAX) service
T2 sequence (P29322 28-1005): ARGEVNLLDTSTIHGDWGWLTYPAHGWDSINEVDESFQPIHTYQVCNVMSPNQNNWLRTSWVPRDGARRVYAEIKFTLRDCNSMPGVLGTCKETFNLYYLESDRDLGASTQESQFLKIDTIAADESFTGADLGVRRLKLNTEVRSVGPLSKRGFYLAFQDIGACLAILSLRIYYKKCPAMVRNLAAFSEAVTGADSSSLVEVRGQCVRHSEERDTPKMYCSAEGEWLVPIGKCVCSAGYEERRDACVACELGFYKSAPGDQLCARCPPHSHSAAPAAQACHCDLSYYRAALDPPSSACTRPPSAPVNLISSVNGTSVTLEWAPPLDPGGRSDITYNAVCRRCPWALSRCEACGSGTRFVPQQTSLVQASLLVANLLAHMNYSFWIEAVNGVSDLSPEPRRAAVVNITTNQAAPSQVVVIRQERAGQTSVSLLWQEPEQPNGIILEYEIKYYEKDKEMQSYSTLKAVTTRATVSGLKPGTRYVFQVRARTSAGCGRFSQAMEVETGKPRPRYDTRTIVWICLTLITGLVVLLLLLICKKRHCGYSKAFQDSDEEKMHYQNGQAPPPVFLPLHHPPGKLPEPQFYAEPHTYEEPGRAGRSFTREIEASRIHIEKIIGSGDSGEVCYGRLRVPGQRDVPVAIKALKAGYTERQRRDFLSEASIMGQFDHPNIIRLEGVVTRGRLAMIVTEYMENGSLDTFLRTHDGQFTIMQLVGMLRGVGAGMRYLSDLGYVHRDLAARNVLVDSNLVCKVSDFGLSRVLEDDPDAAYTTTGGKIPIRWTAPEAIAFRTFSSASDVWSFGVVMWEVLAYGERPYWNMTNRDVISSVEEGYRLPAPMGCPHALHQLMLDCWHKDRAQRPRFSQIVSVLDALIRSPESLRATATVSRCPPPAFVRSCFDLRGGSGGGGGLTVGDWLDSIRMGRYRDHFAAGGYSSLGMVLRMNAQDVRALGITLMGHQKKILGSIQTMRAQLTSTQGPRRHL

panel of 468 kinases [3] = molecular target: T3, panel of 468 kinases (Homo sapiens, UniProt P30530); conditions: AXL; 1 μM; read-out: % control
T3 construct: purchased KINOMEscan (ScanMAX) service
T3 sequence (P30530 26-894): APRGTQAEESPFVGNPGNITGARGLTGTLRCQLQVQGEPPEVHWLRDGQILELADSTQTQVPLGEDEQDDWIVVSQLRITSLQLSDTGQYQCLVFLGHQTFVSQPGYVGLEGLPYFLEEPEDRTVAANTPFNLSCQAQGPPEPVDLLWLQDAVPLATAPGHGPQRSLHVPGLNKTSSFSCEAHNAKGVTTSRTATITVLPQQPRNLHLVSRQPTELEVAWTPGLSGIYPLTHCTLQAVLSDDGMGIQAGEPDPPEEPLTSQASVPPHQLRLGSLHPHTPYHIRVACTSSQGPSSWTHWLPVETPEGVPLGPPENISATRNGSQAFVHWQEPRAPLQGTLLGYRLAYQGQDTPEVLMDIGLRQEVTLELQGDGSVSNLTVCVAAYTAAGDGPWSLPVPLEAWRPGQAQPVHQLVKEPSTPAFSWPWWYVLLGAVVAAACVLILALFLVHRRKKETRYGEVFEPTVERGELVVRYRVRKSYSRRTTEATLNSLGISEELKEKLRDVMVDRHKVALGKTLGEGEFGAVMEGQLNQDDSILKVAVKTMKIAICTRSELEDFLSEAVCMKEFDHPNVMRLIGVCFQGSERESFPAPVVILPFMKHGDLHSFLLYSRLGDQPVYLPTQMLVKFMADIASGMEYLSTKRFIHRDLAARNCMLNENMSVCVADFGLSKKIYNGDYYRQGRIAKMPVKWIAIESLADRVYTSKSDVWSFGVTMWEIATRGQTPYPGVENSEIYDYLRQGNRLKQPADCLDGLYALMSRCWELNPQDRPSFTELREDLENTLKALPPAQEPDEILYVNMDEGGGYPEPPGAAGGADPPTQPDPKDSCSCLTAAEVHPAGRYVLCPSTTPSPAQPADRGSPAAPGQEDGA

panel of 468 kinases [4] = molecular target: T4, panel of 468 kinases (Homo sapiens, UniProt P35916); conditions: FLT4; 1 μM; read-out: % control
T4 construct: purchased KINOMEscan (ScanMAX) service
T4 sequence (P35916 25-1363): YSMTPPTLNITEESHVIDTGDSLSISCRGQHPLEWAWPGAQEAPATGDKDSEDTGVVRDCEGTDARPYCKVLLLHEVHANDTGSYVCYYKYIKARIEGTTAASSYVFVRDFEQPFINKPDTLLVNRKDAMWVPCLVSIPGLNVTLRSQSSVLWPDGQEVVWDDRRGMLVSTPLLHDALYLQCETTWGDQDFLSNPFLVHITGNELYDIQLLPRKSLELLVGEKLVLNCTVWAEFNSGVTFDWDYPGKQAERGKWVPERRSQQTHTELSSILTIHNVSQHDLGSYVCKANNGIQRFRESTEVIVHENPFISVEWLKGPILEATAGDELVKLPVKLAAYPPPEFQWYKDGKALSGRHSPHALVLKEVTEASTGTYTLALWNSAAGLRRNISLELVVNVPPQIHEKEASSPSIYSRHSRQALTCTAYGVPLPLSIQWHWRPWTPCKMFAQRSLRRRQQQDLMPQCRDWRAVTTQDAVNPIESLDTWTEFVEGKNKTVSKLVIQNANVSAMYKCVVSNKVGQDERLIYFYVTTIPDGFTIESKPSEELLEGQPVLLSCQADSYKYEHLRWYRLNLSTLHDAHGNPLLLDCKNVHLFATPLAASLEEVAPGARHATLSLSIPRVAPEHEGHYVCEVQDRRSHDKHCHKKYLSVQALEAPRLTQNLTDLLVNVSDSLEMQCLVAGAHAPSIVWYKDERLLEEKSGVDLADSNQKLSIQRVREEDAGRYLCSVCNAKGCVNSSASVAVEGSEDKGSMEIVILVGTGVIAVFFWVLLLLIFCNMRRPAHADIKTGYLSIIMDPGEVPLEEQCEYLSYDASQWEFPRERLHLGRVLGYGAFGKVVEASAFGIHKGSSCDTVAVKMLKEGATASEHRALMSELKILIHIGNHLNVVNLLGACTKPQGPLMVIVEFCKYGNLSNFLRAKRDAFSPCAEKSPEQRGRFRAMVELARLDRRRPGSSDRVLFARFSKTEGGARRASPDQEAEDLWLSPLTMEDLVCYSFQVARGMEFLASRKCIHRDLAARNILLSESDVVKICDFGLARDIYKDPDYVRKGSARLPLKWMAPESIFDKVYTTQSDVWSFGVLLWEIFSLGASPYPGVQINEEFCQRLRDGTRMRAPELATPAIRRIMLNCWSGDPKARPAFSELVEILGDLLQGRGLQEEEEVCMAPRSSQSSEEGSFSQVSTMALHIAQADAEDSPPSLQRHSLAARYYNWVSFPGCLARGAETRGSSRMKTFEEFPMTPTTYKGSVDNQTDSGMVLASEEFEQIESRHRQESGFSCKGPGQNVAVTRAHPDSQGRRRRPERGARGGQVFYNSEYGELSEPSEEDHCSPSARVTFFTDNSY

panel of 468 kinases [5] = molecular target: T5, panel of 468 kinases (Homo sapiens, UniProt P42338); conditions: PIK3CB; 1 μM; read-out: % control
T5 construct: purchased KINOMEscan (ScanMAX) service

panel of 468 kinases [6] = molecular target: T6, panel of 468 kinases (Homo sapiens, UniProt P42685); conditions: FRK; 1 μM; read-out: % control
T6 construct: purchased KINOMEscan (ScanMAX) service
T6 sequence (P42685 whole entry): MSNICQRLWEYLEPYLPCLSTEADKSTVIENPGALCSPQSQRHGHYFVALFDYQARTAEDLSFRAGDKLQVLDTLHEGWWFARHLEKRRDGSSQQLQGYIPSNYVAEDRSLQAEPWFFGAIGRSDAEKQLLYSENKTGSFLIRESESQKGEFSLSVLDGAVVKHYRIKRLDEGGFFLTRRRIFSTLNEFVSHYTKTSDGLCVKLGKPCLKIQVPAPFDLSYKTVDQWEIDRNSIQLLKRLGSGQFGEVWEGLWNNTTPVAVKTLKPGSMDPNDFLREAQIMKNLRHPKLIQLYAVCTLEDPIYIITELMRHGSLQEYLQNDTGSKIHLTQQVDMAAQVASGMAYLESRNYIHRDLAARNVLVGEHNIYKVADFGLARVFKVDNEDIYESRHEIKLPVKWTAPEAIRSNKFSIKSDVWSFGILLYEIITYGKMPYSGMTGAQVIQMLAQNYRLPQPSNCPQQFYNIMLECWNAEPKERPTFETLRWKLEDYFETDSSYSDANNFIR

panel of 468 kinases [7] = molecular target: T7, panel of 468 kinases (Homo sapiens, UniProt Q02763); conditions: TIE2; 1 μM; read-out: % control
T7 construct: purchased KINOMEscan (ScanMAX) service
T7 sequence (Q02763 23-1124): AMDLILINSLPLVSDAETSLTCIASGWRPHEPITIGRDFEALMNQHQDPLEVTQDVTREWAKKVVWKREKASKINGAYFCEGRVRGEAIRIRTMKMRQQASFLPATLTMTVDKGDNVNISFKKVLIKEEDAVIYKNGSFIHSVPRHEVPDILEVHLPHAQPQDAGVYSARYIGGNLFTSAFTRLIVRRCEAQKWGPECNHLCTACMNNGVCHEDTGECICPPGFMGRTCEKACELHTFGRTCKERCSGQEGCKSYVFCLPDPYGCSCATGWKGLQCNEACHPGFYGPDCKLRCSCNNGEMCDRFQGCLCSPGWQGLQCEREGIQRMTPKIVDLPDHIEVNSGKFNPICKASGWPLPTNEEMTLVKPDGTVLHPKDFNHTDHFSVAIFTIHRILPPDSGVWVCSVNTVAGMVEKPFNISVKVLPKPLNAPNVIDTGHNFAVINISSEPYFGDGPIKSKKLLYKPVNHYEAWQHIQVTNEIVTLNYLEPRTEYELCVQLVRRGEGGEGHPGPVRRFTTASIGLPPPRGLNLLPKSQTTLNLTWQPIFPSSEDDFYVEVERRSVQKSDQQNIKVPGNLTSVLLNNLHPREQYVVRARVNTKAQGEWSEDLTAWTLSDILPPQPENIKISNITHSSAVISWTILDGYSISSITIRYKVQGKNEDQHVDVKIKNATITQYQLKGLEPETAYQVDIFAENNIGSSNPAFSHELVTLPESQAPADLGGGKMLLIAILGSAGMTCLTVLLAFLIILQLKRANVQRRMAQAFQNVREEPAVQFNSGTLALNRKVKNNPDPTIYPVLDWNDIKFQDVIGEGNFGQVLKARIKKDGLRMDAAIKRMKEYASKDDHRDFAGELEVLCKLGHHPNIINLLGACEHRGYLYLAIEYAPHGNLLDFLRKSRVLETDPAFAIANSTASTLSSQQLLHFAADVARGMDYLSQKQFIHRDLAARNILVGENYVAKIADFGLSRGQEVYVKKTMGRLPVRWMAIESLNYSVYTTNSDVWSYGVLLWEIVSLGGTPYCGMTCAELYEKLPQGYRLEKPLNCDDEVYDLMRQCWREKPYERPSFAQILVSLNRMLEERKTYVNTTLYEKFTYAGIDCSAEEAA

panel of 468 kinases [8] = molecular target: T8, panel of 468 kinases (Homo sapiens, UniProt Q02779); conditions: MLK2; 1 μM; read-out: % control
T8 construct: purchased KINOMEscan (ScanMAX) service
T8 sequence (Q02779 whole entry): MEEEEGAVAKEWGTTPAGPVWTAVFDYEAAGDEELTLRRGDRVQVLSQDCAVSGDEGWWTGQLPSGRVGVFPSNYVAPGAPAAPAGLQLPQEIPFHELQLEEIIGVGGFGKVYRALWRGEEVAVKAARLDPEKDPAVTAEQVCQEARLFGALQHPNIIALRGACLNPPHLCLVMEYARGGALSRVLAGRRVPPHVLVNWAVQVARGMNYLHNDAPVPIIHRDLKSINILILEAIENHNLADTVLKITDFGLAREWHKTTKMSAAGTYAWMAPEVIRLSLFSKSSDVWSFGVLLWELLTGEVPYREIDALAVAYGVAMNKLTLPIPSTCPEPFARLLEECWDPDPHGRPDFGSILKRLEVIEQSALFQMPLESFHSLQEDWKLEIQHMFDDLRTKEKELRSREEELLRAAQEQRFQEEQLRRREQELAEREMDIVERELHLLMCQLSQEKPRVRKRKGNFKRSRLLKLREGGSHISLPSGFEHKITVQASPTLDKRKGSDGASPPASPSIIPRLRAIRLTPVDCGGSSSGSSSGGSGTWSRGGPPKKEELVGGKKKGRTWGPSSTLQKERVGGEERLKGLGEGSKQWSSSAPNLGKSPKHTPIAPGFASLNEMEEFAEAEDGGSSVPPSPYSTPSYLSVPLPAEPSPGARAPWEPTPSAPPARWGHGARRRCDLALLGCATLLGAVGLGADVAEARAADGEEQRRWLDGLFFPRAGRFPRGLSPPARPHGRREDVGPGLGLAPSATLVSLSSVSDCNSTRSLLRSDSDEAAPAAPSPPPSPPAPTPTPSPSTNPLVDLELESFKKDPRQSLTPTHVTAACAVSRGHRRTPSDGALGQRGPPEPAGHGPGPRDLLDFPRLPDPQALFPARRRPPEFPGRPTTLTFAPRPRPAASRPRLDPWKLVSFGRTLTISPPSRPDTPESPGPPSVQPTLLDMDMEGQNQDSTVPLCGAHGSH

panel of 468 kinases [9] = molecular target: T9, panel of 468 kinases (Homo sapiens, UniProt Q86V86); conditions: PIM3; 1 μM; read-out: % control
T9 construct: purchased KINOMEscan (ScanMAX) service

T1 sequence (P10721 26-976 D816V): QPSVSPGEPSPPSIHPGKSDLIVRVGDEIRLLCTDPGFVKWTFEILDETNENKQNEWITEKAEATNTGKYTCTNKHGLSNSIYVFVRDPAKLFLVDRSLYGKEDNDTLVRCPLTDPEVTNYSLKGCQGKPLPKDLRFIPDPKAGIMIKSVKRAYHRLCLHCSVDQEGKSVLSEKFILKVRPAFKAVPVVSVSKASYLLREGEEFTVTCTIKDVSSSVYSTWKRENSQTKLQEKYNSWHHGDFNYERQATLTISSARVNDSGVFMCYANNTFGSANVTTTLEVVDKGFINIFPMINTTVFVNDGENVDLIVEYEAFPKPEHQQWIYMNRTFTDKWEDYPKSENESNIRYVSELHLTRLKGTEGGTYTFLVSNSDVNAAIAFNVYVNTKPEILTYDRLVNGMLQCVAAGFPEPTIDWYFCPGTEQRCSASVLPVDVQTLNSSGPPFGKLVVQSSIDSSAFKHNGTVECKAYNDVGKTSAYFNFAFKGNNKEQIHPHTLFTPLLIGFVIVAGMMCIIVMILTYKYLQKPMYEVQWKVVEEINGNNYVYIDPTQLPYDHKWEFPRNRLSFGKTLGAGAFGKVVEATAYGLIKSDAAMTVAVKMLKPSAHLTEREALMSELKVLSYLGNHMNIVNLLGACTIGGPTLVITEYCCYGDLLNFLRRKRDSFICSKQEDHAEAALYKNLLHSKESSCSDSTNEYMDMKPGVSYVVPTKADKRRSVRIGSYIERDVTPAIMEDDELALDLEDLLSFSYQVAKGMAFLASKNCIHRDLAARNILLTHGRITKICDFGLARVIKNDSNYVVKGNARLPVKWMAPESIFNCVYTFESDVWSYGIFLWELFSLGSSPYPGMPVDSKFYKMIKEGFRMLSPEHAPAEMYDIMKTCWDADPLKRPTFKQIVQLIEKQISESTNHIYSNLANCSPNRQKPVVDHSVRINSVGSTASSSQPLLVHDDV

Compound | remaining binding at 1 µM (panel of 468 kinases [1]) | remaining binding at 1 µM (panel of 468 kinases [2]) | remaining binding at 1 µM (panel of 468 kinases [3]) | remaining binding at 1 µM (panel of 468 kinases [4]) | remaining binding at 1 µM (panel of 468 kinases [5]) | remaining binding at 1 µM (panel of 468 kinases [6]) | remaining binding at 1 µM (panel of 468 kinases [7]) | remaining binding at 1 µM (panel of 468 kinases [8]) | remaining binding at 1 µM (panel of 468 kinases [9])
CNc1nc(Nc2ccc(S(=O)(=O)N3CCC(N4CCOCC4)CC3)cc2OC)nc2[nH]cc(Cl)c12 [Compound 12, 5-chloro-N2-(2-methoxy-4-((4-morpholinopiperidin-1-yl)sulfonyl)phenyl)-N4-methyl-7H-pyrrolo[2,3-d]pyrimidine-2,4-diamine] | 100% | 100% | 100% | 100% | 80% | 100% | 94% | 99% | 100%
CNc1nc(Nc2ccc(C(=O)N3CCC(N4CCOCC4)CC3)c3c2OCO3)nc2[nH]cc(Cl)c12 [Compound 75, (7-((5-chloro-4-(methylamino)-7H-pyrrolo[2,3-d]pyrimidin-2-yl)amino)benzo[d][1,3]dioxol-4-yl)(4-morpholinopiperidin-1-yl)methanone] | 98% | 100% | 63% | 100% | 89% | 100% | 94% | 93% | 100%
CNc1nc(Nc2ccc(P3(=O)CCN(C4CCOCC4)CC3)cc2OC)nc2[nH]cc(Cl)c12 [Compound 77, 4-(4-((5-chloro-4-(methylamino)-7H-pyrrolo[2,3-d]pyrimidin-2-yl)amino)-3-methoxyphenyl)-1-(tetrahydro-2H-pyran-4-yl)-1,4-azaphosphinane 4-oxide] | 100% | 100% | 93% | 100% | 71% | 100% | 100% | 99% | 100%
